Test results as given in patent US20030129629A1, “Methods and compositions for the identification, assessment, prevention, and therapy of human cancers” (Millennium Pharmaceuticals, Inc., priority 2000, published 2003).
Like-named read-outs stand apart in the source and are kept apart here.

Assays:
[1] = tested on: 60 cancer cell lines (NCI 60 cancer cell line series); test: NCI-DTP in vitro cancer screen, sulforhodamine B (SRB) growth inhibition, 48 hour exposure; type: cell-based, human
Method in brief: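 NCI-DTP panel of 60 cancer cell lines plated day 0 at line-specific densities, exposed from day 1 to compound at 5 ten-fold-spaced doses in duplicate wells. After 48 h, cell mass stained with sulforhodamine B; −log GI50 derived from dose–response curves, averaged, and classed Low, Medium or High sensitivity.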

[2] = tested on: 60 cancer cell lines (NCI 60 cancer cell line series); conditions: cited from earlier work

## CC(=O)O[C@H]1C(=O)[C@@]2(C)[C@H]([C@H](OC(=O)c3ccccc3)[C@]3(O)C[C@H](OC(=O)[C@H](O)[C@@H](NC(=O)c4ccccc4)c4ccccc4)C(C)=C1C3(C)C)[C@]1(OC(C)=O)CO[C@@H]1C[C@@H]2O [TAXOL, paclitaxel, reference compound]
[1]; Breast BT-549 CL5013
  classification of cell line as Low(1), Medium(2), High(3) sensitivity to compound: 2
[1]; Breast MCF7/ADRr CL5002
  classification of cell line as Low(1), Medium(2), High(3) sensitivity to compound: 1
[1]; Breast MDA-MB-231 CL5005
  classification of cell line as Low(1), Medium(2), High(3) sensitivity to compound: 2
[1]; Breast MDA-MB-435 CL5011
  classification of cell line as Low(1), Medium(2), High(3) sensitivity to compound: 3
[1]; Breast MDA-N CL5012
  classification of cell line as Low(1), Medium(2), High(3) sensitivity to compound: 3
[1]; CNS SF-268 CL12014
  classification of cell line as Low(1), Medium(2), High(3) sensitivity to compound: 2
[1]; CNS SF-295 CL12015
  classification of cell line as Low(1), Medium(2), High(3) sensitivity to compound: 2
[1]; CNS SF-539 CL12016
  classification of cell line as Low(1), Medium(2), High(3) sensitivity to compound: 2
[1]; CNS SNB-19 CL12002
  classification of cell line as Low(1), Medium(2), High(3) sensitivity to compound: 2
[1]; CNS U251(I) CL12009
  classification of cell line as Low(1), Medium(2), High(3) sensitivity to compound: 2
[1]; Colon HCT-15 CL4015
  classification of cell line as Low(1), Medium(2), High(3) sensitivity to compound: 1
[1]; Colon HCT-116 CL4003
  classification of cell line as Low(1), Medium(2), High(3) sensitivity to compound: 3
[1]; Colon HT29(I) CL4001
  classification of cell line as Low(1), Medium(2), High(3) sensitivity to compound: 3
[1]; Colon KM12 CL4017
  classification of cell line as Low(1), Medium(2), High(3) sensitivity to compound: 2
[1]; Leukemia MOLT-4 CL7006
  classification of cell line as Low(1), Medium(2), High(3) sensitivity to compound: 2
[1]; Leukemia RPMI-8226(I) CL7010
  classification of cell line as Low(1), Medium(2), High(3) sensitivity to compound: 3
[1]; Melanoma M14 CL10014
  classification of cell line as Low(1), Medium(2), High(3) sensitivity to compound: 2
[1]; NSCLC NCI-H23(I) CL1001
  sensitivity classification Low(1)/Medium(2)/High(3): 2
[1]; NSCLC NCI-H332M CL1017
  sensitivity classification Low(1)/Medium(2)/High(3): 2
[1]; Ovarian IGROV1 CL6010
  sensitivity classification Low(1)/Medium(2)/High(3): 2
[1]; Ovarian OVCAR-4 CL6002
  sensitivity classification Low(1)/Medium(2)/High(3): 1
[1]; Ovarian OVCAR-8 CL6005
  sensitivity classification Low(1)/Medium(2)/High(3): 2
[1]; Ovarian SK-OV-3 CL6011
  sensitivity classification Low(1)/Medium(2)/High(3): 2
[1]; Prostate DU-145 CL11003
  sensitivity classification Low(1)/Medium(2)/High(3): 2
[1]; Prostate PC-3(I) CL11001
  sensitivity classification Low(1)/Medium(2)/High(3): 2
[1]; Renal 786-0 CL9018
  sensitivity classification Low(1)/Medium(2)/High(3): 2
[1]; Renal ACHN CL9023
  sensitivity classification Low(1)/Medium(2)/High(3): 1
[1]; Renal CAKI-1 CL9015
  sensitivity classification Low(1)/Medium(2)/High(3): 1
[1]; Renal RXF-393 CL9016
  sensitivity classification Low(1)/Medium(2)/High(3): 2
[1]; Renal SN12C CL9008
  sensitivity classification Low(1)/Medium(2)/High(3): 2
[1]; Renal UO-31 CL9004
  sensitivity classification Low(1)/Medium(2)/High(3): 1
[2]; Breast MCF7/ADRr CL5002
  −Log (GI50): 5.5
[2]; Colon COLO-250 CL4010
  −Log (GI50): 8.0
[2]; Melanoma SK-MEL-5 CL10007
  −Log (GI50): 6.3
[2]; Melanoma UACC-62 CL10020
  −Log (GI50): 8.1
[2]; Melanoma UACC-257 CL10021
  −Log (GI50): 7.1
[2]; NSCLC A549/ATCC CL1004
  −Log (GI50): 8.0
[2]; NSCLC EKVX CL1008
  −Log (GI50): 4.8
[2]; NSCLC HOP-62 CL1026
  −Log (GI50): 7.4
[2]; NSCLC HOP-92 CL1029
  −Log (GI50): 5.7
[2]; Ovarian OVCAR-5 CL6003
  −Log (GI50): 6.8
